“And” between values parts separate entries of the source, which are not always exact repeats. Equal entries are not always repeated. Where two headings read alike, the source gives them in different places.
Columns and labels:
male Sprague-Dawley rats = details: cited from earlier work
[1] = molecular target: human mu-opioid receptors (Homo sapiens, UniProt P35372); details: cited from earlier work
TTR in human serum = TTR in human serum (Homo sapiens, UniProt P02766); assay: TTR serum fluorescent probe exclusion (FPE) selectivity assay; assay type: binding; details: ligand 10 µM; for %FPE probe fluorescence: human serum, replicates
purified human TTR = purified human TTR (Homo sapiens, UniProt P02766); assay: Fluorescence polarization (FP) binding assay, ligands to TTR in buffer
holo-RBP-TTR interaction = holo-RBP-TTR interaction (Homo sapiens, UniProt P02766); assay: Effect on holo-RBP-TTR interaction in human serum (cross-linking, Western blot); details: human serum, quantified from gel image, replicates (Supp Fig.14b)

human mu-opioid receptors, sequence (P35372 whole entry): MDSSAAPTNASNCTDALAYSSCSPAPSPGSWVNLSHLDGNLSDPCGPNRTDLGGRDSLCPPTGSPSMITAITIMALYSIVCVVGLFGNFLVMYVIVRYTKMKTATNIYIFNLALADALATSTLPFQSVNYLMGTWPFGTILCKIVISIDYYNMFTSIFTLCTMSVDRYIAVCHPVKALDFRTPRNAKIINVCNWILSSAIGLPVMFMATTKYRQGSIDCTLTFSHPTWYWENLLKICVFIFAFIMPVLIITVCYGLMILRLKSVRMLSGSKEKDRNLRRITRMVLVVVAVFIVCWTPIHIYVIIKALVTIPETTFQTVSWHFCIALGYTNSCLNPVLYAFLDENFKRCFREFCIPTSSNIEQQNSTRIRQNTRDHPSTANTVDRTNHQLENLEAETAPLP

## CN(C)C(=O)C(CCN1CCC(O)(c2ccc(Cl)cc2)CC1)(c1ccccc1)c1ccccc1 [Loperamide]
Male Sprague-Dawley rats; 30 mg/kg
  GI transit: 30%
Male Sprague-Dawley rats; subcutaneous 1 mg/kg
  GI transit: 50%
Male Sprague-Dawley rats; subcutaneous
  ED50 for inducing constipation: 1 mg/kg

## C[N+]1(CC2CC2)CC[C@]23c4c5ccc(O)c4O[C@H]2C(=O)CC[C@@]3(O)[C@H]1C5 (some centres unmarked) [MNTX]
[1]
  affinity for the mu-opioid receptors as % of naltrexone: 1%
[1]; read-out: binding affinity to mu-opioid receptor (Ki)
  Ki: 22.1 nM

## Cc1n[nH]c(C)c1CCCOc1cc(OCCCCCCN)cc(C(=O)O)c1 [Compound 1]
TTR in human serum; FPE probe 3.6 µM, 3 h reading relative to probe alone, text mean ± s.d., table replicates
  % TTR occupancy in human serum: 80.97% and 81.01% and 82.98% and 80.85%
TTR in human serum; time 0.000 h
  %FPE probe fluorescence: 0.000%
TTR in human serum; time 0.083 h
  %FPE probe fluorescence: 1.647% and 2.385% and -0.604% and 3.064%
TTR in human serum; time 0.250 h
  %FPE probe fluorescence: 1.886% and 5.252% and 4.502% and 2.159%
TTR in human serum; time 0.500 h
  %FPE probe fluorescence: 6.344% and 5.631% and 7.192% and 4.320%
TTR in human serum; time 1.000 h
  %FPE probe fluorescence: 3.308% and 7.416% and 10.395% and 10.953%
TTR in human serum; time 1.250 h
  %FPE probe fluorescence: 4.585% and 8.580% and 11.565% and 11.702%
TTR in human serum; time 1.500 h
  %FPE probe fluorescence: 7.132% and 12.681% and 12.080% and 11.106%
TTR in human serum; time 1.750 h
  %FPE probe fluorescence: 8.769% and 12.456% and 13.547% and 12.819%
TTR in human serum; time 2.000 h
  %FPE probe fluorescence: 10.680% and 14.441% and 12.622% and 13.836%
TTR in human serum; time 2.250 h
  %FPE probe fluorescence: 13.720% and 16.433% and 14.485% and 14.975%
TTR in human serum; time 2.500 h
  %FPE probe fluorescence: 13.664% and 19.254% and 16.706% and 17.421%
TTR in human serum; time 2.750 h
  %FPE probe fluorescence: 17.610% and 18.428% and 15.401% and 17.419%
TTR in human serum; time 3.000 h
  %FPE probe fluorescence: 19.032% and 18.994% and 17.022% and 19.151%
TTR in human serum; time 3.500 h
  %FPE probe fluorescence: 21.344% and 21.727% and 19.004% and 22.809%
TTR in human serum; time 3.750 h
  %FPE probe fluorescence: 22.381% and 21.465% and 19.735% and 21.684%
TTR in human serum; time 4.000 h
  %FPE probe fluorescence: 24.245% and 24.044% and 22.333% and 25.118%
TTR in human serum; time 4.250 h
  %FPE probe fluorescence: 24.067% and 25.243% and 24.565% and 26.782%
TTR in human serum; time 4.500 h
  %FPE probe fluorescence: 26.784% and 27.018% and 26.091% and 25.883%
TTR in human serum; time 4.750 h
  %FPE probe fluorescence: 28.232% and 25.575% and 25.168% and 25.868%
TTR in human serum; time 5.000 h
  %FPE probe fluorescence: 29.310% and 28.226% and 25.991% and 29.486%
TTR in human serum; time 5.250 h
  %FPE probe fluorescence: 29.376% and 30.191% and 26.180% and 29.320%
TTR in human serum; time 5.500 h
  %FPE probe fluorescence: 30.897% and 29.807% and 29.795% and 31.357%
TTR in human serum; time 5.750 h
  %FPE probe fluorescence: 32.177% and 31.200% and 28.228% and 32.379%
TTR in human serum; time 6.000 h
  %FPE probe fluorescence: 33.601% and 32.676% and 30.907% and 33.191%
Purified human TTR; FP assay, Kd from IC50 by Cheng-Prusoff, read-out: binding affinity to TTR in buffer (Kd)
  Kd: 68.5 nM
Purified human TTR; log [nM] inhibitor 0.990
  % Fluorescence polarization (mean): 100.000%
Purified human TTR; log [nM] inhibitor 1.291
  % Fluorescence polarization (mean): 100.180%
Purified human TTR; log [nM] inhibitor 1.592
  % Fluorescence polarization (mean): 101.890%
Purified human TTR; log [nM] inhibitor 1.893
  % Fluorescence polarization (mean): 93.660%
Purified human TTR; log [nM] inhibitor 2.194
  % Fluorescence polarization (mean): 79.820%
Purified human TTR; log [nM] inhibitor 2.495
  % Fluorescence polarization (mean): 50.610%
Purified human TTR; log [nM] inhibitor 2.796
  % Fluorescence polarization (mean): 29.820%
Purified human TTR; log [nM] inhibitor 3.097
  % Fluorescence polarization (mean): 10.200%
Purified human TTR; log [nM] inhibitor 3.398
  % Fluorescence polarization (mean): 5.680%
Purified human TTR; log [nM] inhibitor 3.699
  % Fluorescence polarization (mean): 2.100%
Purified human TTR; log [nM] inhibitor 4.000
  % Fluorescence polarization (mean): 0.000%
Purified human TTR; log [nM] inhibitor […]
  % Fluorescence polarization (mean): 0.000%
holo-RBP-TTR interaction
  %holo RBP binding to TTR: 8% and 6.2% and 5.8%

— publication PMC9226319, “Peripherally restricted transthyretin-based delivery system for probes and therapeutics avoiding opioid-related side effects” (Nature Communications, 2022)
